Source: patent US8222242B2, “Nitric oxide releasing compounds” (The Regents of the University of California, priority 2008, dated 2012)

Key:
D. melanogaster = test: Viability of injected D. melanogaster; details: 1 μl injected; 1 mM (ascorbic acid 5 mM); observed 48 h
Method: (A) Tubular secretion rates of Malpighian tubules isolated from D. melanogaster were measured, using half-strength Schneider's medium. Basal tubular secretion was measured at 0, 10, and 20 minutes; at 20 minutes (depicted by the arrow) 1 mM cobinamide (Cbi, open circles), 1 mM NO-Cbi (filled circles), 0.5 mM Deta-NONOate (diamonds), or 100 μM 8-CPT-cGMP (inverted triangles) were added. Results are the mean±S.D. of three independent experiments performed on Malpighian tubule pairs from 10 flies. […] (B). Flies were injected with 1 μl of 1 mM cobinamide (Cbi, open circles), 1 mM NO-Cbi (filled circles), 0.5 mM Deta-NONOate (diamonds), or 1 mM spermine NONOate (squares). […] The data are plotted as a Kaplan-Meier survival curve, and are the mean±SD of three experiments, with 10 flies per condition per experiment. […] (C). Flies were injected with 1 μl of water (control, open bar), 1 mM cobinamide (Cbi, grey bar), or 1 mM NO-Cbi (black bars). Flies were killed and extracts were prepared at 3 hours for the water- and cobinamide-injected flies, and at the indicated times for the NO-Cbi-injected flies. Nitrite and nitrate in the extracts were measured using an enhanced Griess reagent.
The fluid volume of a fly is […], and thus, the injected agent was diluted about 10-fold. […]

mouse aortic rings = test: Relaxation of mouse aortic rings constricted with prostaglandin F2α; details: rings pretreated with 2 μM prostaglandin F2α; read-out: EC50, concentration that induced half-maximal relaxation
Method: Hearts and aortas were removed from NIH Swiss mice anesthetized with sodium nembutal, and coronary flow was measured in the hearts using a Langendorff preparation (FIG. 5a) and relaxation of aortic rings was measured after inducing constriction of the rings with prostaglandin F2α (FIG. 5b). The hearts and aortic rings were treated with a range of concentrations of NO-Cbi (filled circles), nitroglycerin (open circles, dotted line, FIG. 5a), and sodium nitroprusside (open circles, FIG. 5b). Coronary flow was measured on the same hearts for both NO-Cbi and nitroglycerin after an appropriate wash-out period between drugs, and aortic ring relaxation was measured on two rings from the same aorta for NO-Cbi and sodium nitroprusside. The data are the mean of two independent experiments performed on two separate hearts in each experiment (FIG. 5a), and the mean±SEM of two independent experiments performed on three separate aortic rings in each experiment (FIG. 5b).
Relaxation of aortic contraction was measured in 3 mm rings cut from thoracic aortas of mice; the rings were pretreated with 2 μM prostaglandin F2α to produce 0.5-1 g of active tension.

rabbits [1] = test: Continuous intravenous infusion in anesthetized rabbits: systemic hemodynamics and gas exchange; assay type: in vivo, rabbit
Method: NO-Cbi was given by intravenous infusion at a dose of 5 μg/kg/min (4.8 nmol/kg/min) to a 3.5 kg rabbit. […] The infusion was stopped at 10 minutes, but, because of drawing blood through the arterial line for blood gas analysis, the first measurement of blood pressure occurred 6 minutes later. Full recovery required 12 minutes, but it is possible that the initial rate of recovery was faster than shown in the graph. A small overshoot occurred in both systolic and diastolic blood pressure, before returning to pre-treatment levels.
Continuous intravenous NO-Cbi infusions were performed in anesthetized rabbits with systemic hemodynamic monitoring, continuous gas exchange analysis, and diffuse optical spectroscopy (DOS) and continuous wave near-infrared spectroscopy monitoring. DOS monitoring was over muscle as a representation of peripheral tissue, and continuous wave spectroscopy was over muscle and brain region. Six animals have been studied to date, varying NO-Cbi infusion rates in each animal between 1.7 and 6.9 μg/kg/min (1.6 and 6.7 nmol/kg/min).
The blood pressure of rabbits is similar to that of humans, but because of anesthesia, initial blood pressures in the rabbits were on average ˜80/60 mm Hg (FIG. 6). […] Blood pressure returned to baseline within 12 minutes of stopping the infusion, and starting and stopping the infusion repeatedly yielded similar results.

rabbits [2] = test: Rabbits with phenylephrine-induced hypertension; assay type: in vivo, rabbit
Method: Phenylephrine was given by continuous intravenous infusion to an anesthetized rabbit at increasing rates from 5 to 20 μg/kg/min; the rabbit remained on the highest phenylephrine infusion rate until the end of the experiment (darker arrows with “A”-shaped arrowheads indicate start times of each increasing dose). At 49 minutes, an infusion of NO-Cbi was started at a rate of 3 μg/kg/min (2.9 nmol/kg/min), with the infusion rate doubled at 58 minutes (lighter arrows with triangular-shaped arrowheads indicate start times of infusions). Systolic and diastolic blood pressure recordings from an intra-arterial catheter are shown. Changes in total hemoglobin, oxyhemoglobin, and deoxyhemoglobin concentrations were measured by continuous wave near-infrared spectroscopy over the left thigh muscle. Phenylephrine caused a progressive decrease in total hemoglobin and oxyhemoglobin concentrations, which reversed within seconds of starting the NO-Cbi infusion.
Decreased tissue oxygenation as occurred in the experiments shown in FIGS. 7 and 8 would clearly be an undesirable effect of treating hypertensive patients with NO-Cbi. However, lowering blood pressure of a hypertensive patient is very different from lowering blood pressure of a normotensive subject, and the experiments described in Example 15 rabbits with normal or low (due to anesthesia) blood pressure. To simulate a hypertensive state, the blood pressure of rabbits was raised using a continuous intravenous infusion of phenylephrine, a peripheral vasoconstrictor (FIG. 9). As the rabbit's blood pressure increased above normal, tissue perfusion and oxygenation decreased, as evidenced by a decrease in total hemoglobin and oxyhemoglobin concentrations in muscle.
Thus, in an animal with drug-induced hypertension, NO-Cbi improved tissue perfusion and oxygenation as it lowered blood pressure.

[3] = test system: CS-54 rat vascular smooth muscle cells
Method: CS-54 rat vascular smooth muscle cells were treated with the indicated concentrations of NO-Cbi for 1 hour (A), or 10 μM NO-Cbi for the indicated times (B and C). […] (C) Cell extracts were clarified by centrifugation, and nitrite and nitrate in the extracts were measured by an enhanced Griess reagent method. In A and B, “Con” refers to control, which was cells treated with water. As indicated, the effects of 30 μM cobinamide (Cbi) and 100 μM 8-CPT-cGMP (cGMP) are shown for comparison. In A and B, similar results were obtained in two other experiments.
Nitrite and nitrate were measured in CS-54 cell extracts and fly extracts using a kit from Active Motif based on an enhanced Griess reagent, as described previously (Broderick K E et al. (2006) FASEB J. 20:1865-73).

mice = assay type: in vivo, mouse; details: 0.6 nmol three times at 32 minute intervals
[4] = continuous gas exchange monitoring

## CC1=C2[N+]3=C(C=C4[N+]5=C(C(C)=C6[N]7C(C(CC(N)=O)C6(C)CCC(=O)NCC(C)O)C6(C)[N+](=C1C(CCC(N)=O)C6(C)CC(N)=O)[Co-3]753[N]=O)C(CCC(N)=O)C4(C)C)C(CCC(N)=O)C2(C)CC(N)=O (stereo not shown) [NO-Cbi, nitrosyl cobinamide]
D. melanogaster
  fly killing / toxicity to flies: killed the flies as effectively as 1 mM spermine NONOate
Mouse aortic rings
  EC50: 195 ± 12 nM
Rabbits [1]; 5 μg/kg/min intravenous infusion
  time to new steady-state of blood pressure: 5 min
Rabbits [1]; 5 μg/kg/min intravenous infusion, 3.5 kg rabbit
  time until systolic and diastolic blood pressures began to decrease: ≤ 15 s
Rabbits [1]; 5 μg/kg/min, infusion stopped at 10 minutes
  time required for full recovery of blood pressure: 12 min
Rabbits [1]; [4]
  arterial-venous oxygen differences: increased arterial-venous oxygen differences
  end tidal CO2: decreased end tidal CO2
Rabbits [1]; equimolar amounts
  effects on blood pressure compared with nitroprusside: more rapid and pronounced than those with equimolar amounts of nitroprusside
Rabbits [1]; intravenous infusion
  cardiac output (direct Fick method): decreased
  heart rate: did not change significantly
  time for blood pressure to return to baseline after stopping the infusion: ≤ 12 min
Rabbits [1]; intravenous infusion 1.7 to 6.9 μg/kg/min
  blood pressure: marked infusion-rate-dependent decrease in blood pressure
Rabbits [1]; suggested by return of blood pressure
  physiological half-life of NO-Cbi: 5-6 minutes
Rabbits [2]; NO-Cbi infusion 3 μg/kg/min during phenylephrine, within seconds
  blood pressure: began to decrease
Rabbits [2]; NO-Cbi infusion during phenylephrine
  total tissue hemoglobin and oxyhemoglobin concentrations: increased
[3]; 10 μM NO-Cbi, CS-54 cells
  increased nitrite and nitrate as share of the NO added as NO-Cbi: 55%
  nitrite and nitrate in the culture medium: increased nitrite and nitrate
[3]; rat
  half-life of NO-Cbi estimated from nitrite and nitrate accumulation: 30 min and 60 min
mice
  blood pressure and heart rate on repeated injections: a decrease in blood pressure and increase in heart rate was observed with each injection
